Literature values in US7238375B1, “Composition and method to promote human hair growth” (priority 2004, dated 2007).

Legend:
[1] = biological target: T1, Type 1 5-alpha-reductase (Homo sapiens, UniProt P18405); details: application of copper ion to skin
T1 sequence (P18405 1-259): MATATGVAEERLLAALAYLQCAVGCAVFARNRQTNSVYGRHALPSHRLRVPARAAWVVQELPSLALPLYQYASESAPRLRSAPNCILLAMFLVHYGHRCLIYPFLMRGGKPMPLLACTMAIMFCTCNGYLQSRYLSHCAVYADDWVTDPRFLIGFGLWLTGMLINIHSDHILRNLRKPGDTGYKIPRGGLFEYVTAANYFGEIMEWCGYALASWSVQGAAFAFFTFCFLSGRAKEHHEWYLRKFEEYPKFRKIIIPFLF

[2] = biological target: T2, Type 2 5-alpha-reductase (Homo sapiens, UniProt P31213); details: application of copper ion to skin
T2 sequence (P31213 1-254): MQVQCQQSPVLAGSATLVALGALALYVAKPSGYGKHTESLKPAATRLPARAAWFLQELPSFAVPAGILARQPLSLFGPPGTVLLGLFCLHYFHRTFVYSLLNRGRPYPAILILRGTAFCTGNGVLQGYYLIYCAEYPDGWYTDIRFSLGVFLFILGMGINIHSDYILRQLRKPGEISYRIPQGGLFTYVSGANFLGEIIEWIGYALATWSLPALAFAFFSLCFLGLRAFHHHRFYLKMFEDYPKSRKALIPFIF

[3] = system: sheep; details: supplement in the diet of sheep
[4] = system: rats

IC50 ([1]; read-out: concentration giving 50% reduction in activity of Type 1 5-alpha-reductase)	concentration giving 50% reduction in activity of Type 2 5-alpha-reductase [2]	IC50 ([2]; read-out: concentration giving 50% reduction in activity of Type 2 5-alpha-reductase)	Structure (SMILES)	concentration giving 50% reduction in activity of Type 1 5-alpha-reductase [1]	effect on wool growth patterns [3]	effect on hair shafts [4]
1.9 µM	1.2 micrograms copper ion per milliliter	10.2 µM	[Cu+2] [Copper ion]	0.12 micrograms copper ion per milliliter		
			N[C@@H](CS)C(=O)O [Cysteine]		significant modification in wool growth patterns	thicker hair shafts
